Values quoted from earlier work, collected in paper PMC6311893, “Computational prediction of plasma protein binding of cyclic peptides from small molecule experimental data using sparse modeling techniques” (BMC Bioinformatics, 2018).
Like-named read-outs stand apart in the source and are kept apart here.

Tested on: plasma protein
Conditions: cited from earlier work
[1] = fraction bound to plasma protein, small molecule dataset, sheet 1-SM, ref Ingle et al.
[2] = fraction bound to plasma protein, small molecule dataset, sheet 1-SM (Set Dte = test, Dtr = training), ref Ingle et al.
[3] = fraction bound to plasma protein, small molecule dataset, sheet 1-SM, Set Dtr, ref Ingle et al.

SMILES | PPB (fb) [1] | further results
CCCOC(=O)Cc1ccc(OCC(=O)N(CC)CC)c(OC)c1 [propanidid] |  | PPB (fb) (plasma): 0.75
CCCOC(C(=O)OC1CCN(C)CC1)(c1ccccc1)c1ccccc1 [propiverine] | 0.9 | 
Cc1c(C(C)C)c(=O)n(-c2ccccc2)n1C [propyphenazone] | 0.1 | 
C[C@@H]1O[C@@H](O[C@@H]2C=C3CC[C@@H]4[C@H](CC[C@]5(C)[C@@H](c6ccc(=O)oc6)CC[C@]45O)[C@@]3(C)CC2)[C@H](O)[C@H](O)[C@H]1O [proscillaridin] |  | PPB (fb) (plasma): 0.85
O=C(O)c1ccc(O)c(O)c1 [protocatechuic acid] | 0.21 | 
CNCCCC1c2ccccc2C=Cc2ccccc21 [protriptyline] |  | PPB (fb) [2]: 0.92
CN[C@@H](C)[C@@H](O)c1ccccc1 [pseudoephedrine] |  | PPB (fb) (plasma): 0
Cc1ncc(CO)c(CO)c1O [pyridoxine] | 0 | 
Fc1ccccc1C1=NCC(=S)N(CC(F)(F)F)c2ccc(Cl)cc21 [quazepam] |  | PPB (fb) (plasma): 0.95
OCCOCCN1CCN(C2=Nc3ccccc3Sc3ccccc32)CC1 [quetiapine] | 0.83 | 
C=CCC1(C(C)CCC)C(=O)NC(=O)NC1=O (centres unmarked) [quinalbarbitone] |  | PPB (fb) (plasma): 0.5
CCOC(=O)[C@H](CCc1ccccc1)N[C@@H](C)C(=O)N1Cc2ccccc2C[C@H]1C(=O)O [quinapril] | 0.97 | 
O=C(c1ccc(OCCN2CCCCC2)cc1)c1c(-c2ccc(O)cc2)sc2cc(O)ccc12 [raloxifene] | 0.97 | 
Cc1nc2ccc(CN(C)c3ccc(C(=O)N[C@@H](CCC(=O)O)C(=O)O)s3)cc2c(=O)[nH]1 [raltitrexed] | 0.93 | 
CCOC(=O)[C@H](CCc1ccccc1)N[C@@H](C)C(=O)N1[C@H](C(=O)O)C[C@@H]2CCC[C@@H]21 [ramipril] |  | PPB (fb) (plasma): 0.61
Cn1c(=O)c2c(ncn2CCCNCC(O)c2cc(O)cc(O)c2)n(C)c1=O (centres unmarked) [reproterol] |  | PPB (fb) [2]: 0.5
Cc1cc2nc3c(=O)[nH]c(=O)nc-3n(C[C@H](O)[C@H](O)[C@H](O)CO)c2cc1C [riboflavin] | 0.6 | 
CS(=O)(=O)c1ccc(C2=C(c3ccccc3)C(=O)OC2)cc1 [rofecoxib] | 0.87 | 
CCCN(CCC)CCc1cccc2c1CC(=O)N2 [ropinirole] |  | PPB (fb) (plasma): 0.4
CC[C@H]1OC(=O)[C@H](C)[C@@H](O[C@H]2C[C@@](C)(OC)[C@@H](O)[C@H](C)O2)[C@H](C)[C@@H](O[C@@H]2O[C@H](C)C[C@H](N(C)C)[C@H]2O)[C@](C)(O)C[C@@H](C)/C(=N\OCOCCOC)[C@H](C)[C@@H](O)[C@]1(C)O [roxithromycin] |  | PPB (fb) [2]: 0.78
O=C(O)c1ccccc1O [salicylate] | 0.85 | 

SMILES | PPB (fb) [1] | further results
OCc1cc(C(O)CNCCCCCCOCCCCc2ccccc2)ccc1O (centres unmarked) [salmeterol] | 0.96 | 
O=C(O)[C@H]1O[C@@H](Oc2cc3oc(-c4ccc(O)cc4)cc(=O)c3c(O)c2O)[C@H](O)[C@@H](O)[C@@H]1O [scutellarin] |  | PPB (fb): 0.82
CCC(C)C1(CC)C(=O)NC(=O)NC1=O (centres unmarked) [secbutabarbital] |  | PPB (fb) (plasma): 0.26
O=C1NCCN1CCN1CCC(c2cn(-c3ccc(F)cc3)c3ccc(Cl)cc23)CC1 [sertindole] | 0.99 | 
CN[C@H]1CC[C@@H](c2ccc(Cl)c(Cl)c2)c2ccccc21 [sertraline] |  | PPB (fb) [2]: 0.98
CC(C)CC(N(C)C)C1(c2ccc(Cl)cc2)CCC1 (centres unmarked) [sibutramine] |  | PPB (fb) (plasma): 0.95
CO[C@H]1C[C@@H]2CC[C@@H](C)[C@@](O)(O2)C(=O)C(=O)N2CCCC[C@H]2C(=O)O[C@H]([C@H](C)C[C@@H]2CC[C@@H](O)[C@H](OC)C2)CC(=O)[C@H](C)/C=C(\C)[C@@H](O)[C@@H](OC)C(=O)[C@H](C)C[C@H](C)/C=C/C=C/C=C/1C [sirolimus] | 0.92 | 
CN[C@@H]1[C@H](O)[C@H](NC)[C@H]2O[C@@]3(O)C(=O)C[C@@H](C)O[C@H]3O[C@@H]2[C@H]1O [spectinomycin] | 0.05 | 
C[N+](C)(C)CCOC(=O)CCC(=O)OCC[N+](C)(C)C [succinylcholine] |  | PPB (fb) (plasma): 0.3
Nc1ccc(S(=O)(=O)Nc2ccc(Cl)nn2)cc1 [sulfachlorpyridazine] | 0.97 | 
COc1cc(NS(=O)(=O)c2ccc(N)cc2)nc(OC)n1 [sulfadimethoxine] | 0.95 | 
Cc1cc(C)nc(NS(=O)(=O)c2ccc(N)cc2)n1 [sulfadimidine] |  | PPB (fb) [2]: 0.85
COc1ncnc(NS(=O)(=O)c2ccc(N)cc2)c1OC [sulfadoxine] | 0.94 | 
CCc1nnc(NS(=O)(=O)c2ccc(N)cc2)s1 [sulfaethidole] | 0.97 | 
[H]/N=C(/N)NS(=O)(=O)c1ccc(N)cc1 [sulfaguanidine] | 0.08 | 
Cc1ccnc(NS(=O)(=O)c2ccc(N)cc2)n1 [sulfamerazine] | 0.85 | 
Cc1nnc(NS(=O)(=O)c2ccc(N)cc2)s1 [sulfamethizole] | 0.9 | 
COc1ccc(NS(=O)(=O)c2ccc(N)cc2)nn1 [sulfamethoxypyridazine] |  | PPB (fb) [2]: 0.75
COc1nccnc1NS(=O)(=O)c1ccc(N)cc1 [sulfametopyrazine] | 0.72 | 
COc1cnc(NS(=O)(=O)c2ccc(N)cc2)nc1 [sulfametoxydiazine] | 0.83 | 
Cc1nc(NS(=O)(=O)c2ccc(N)cc2)oc1C [sulfamoxole] | 0.7 | 

SMILES | PPB (fb) [1] | further results
Nc1ccc(S(=O)(=O)Nc2ccnn2-c2ccccc2)cc1 [sulfaphenazole] |  | PPB (fb) [2]: 0.95
O=C(O)c1cc(/N=N/c2ccc(S(=O)(=O)Nc3ccccn3)cc2)ccc1O [sulfasalazine] | 0.97 | 
Nc1ccc(S(=O)(=O)Nc2nccs2)cc1 [sulfathiazole] | 0.67 | 
O=C1OC(c2ccc(O)c(S(=O)(=O)O)c2)(c2ccc(O)c(S(=O)(=O)O)c2)c2c(Br)c(Br)c(Br)c(Br)c21 [sulfobromophthalein] |  | PPB (fb) (plasma): 0.99
CC1=C(CC(=O)O)c2cc(F)ccc2/C1=C\c1ccc([S+](C)[O-])cc1 (centres unmarked) [sulindac] | 0.93 | 
CCN1CCCC1CNC(=O)c1cc(S(N)(=O)=O)ccc1OC (centres unmarked) [sulpiride] |  | PPB (fb) [2]: 0.25
CN1CC(=O)N2[C@H](c3ccc4c(c3)OCO4)c3[nH]c4ccccc4c3C[C@@H]2C1=O [tadalafil] | 0.94 | 
CC/C(=C(\c1ccccc1)c1ccc(OCCN(C)C)cc1)c1ccccc1 [tamoxifen] | 0.99 | 
O=C1[C@@H]2[C@H]3CC[C@H](C3)[C@@H]2C(=O)N1CCCCN1CCN(c2ncccn2)CC1 [tandospirone] | 0.3 | 
C[C@]1(Cn2ccnn2)[C@H](C(=O)O)N2C(=O)C[C@H]2S1(=O)=O [tazobactam] | 0.23 | 
C#CCCCC(=O)c1cc(C(C)(C)C)c(O)c(C(C)(C)C)c1 [tebufelone] | 0.99 | 
Cn1nnc2c(C(N)=O)ncn2c1=O [temozolomide] | 0.15 | 
CC(C)OC(=O)OCOP(=O)(CO[C@H](C)Cn1cnc2c(N)ncnc21)OCOC(=O)OC(C)C [tenofovir disoproxil] | 0.07 | 
CN(C/C=C/C#CC(C)(C)C)Cc1cccc2ccccc12 [terbinafine] | 0.99 | 
CC(C)(C)c1ccc(C(O)CCCN2CCC(C(O)(c3ccccc3)c3ccccc3)CC2)cc1 (centres unmarked) [terfenadine] | 0.84 | 
CC(C)(C)NCC(O)COc1cccc2c1SCCC2 (centres unmarked) [tertatolol] |  | PPB (fb) [2]: 0.95
COc1cc2c(cc1OC)C1CC(=O)C(CC(C)C)CN1CC2 (centres unmarked) [tetrabenazine] | 0.85 | 
CCCCNc1ccc(C(=O)OCCN(C)C)cc1 [tetracaine] | 0.85 | 
Cc1nc(C)c(C)nc1C [tetramethylpyrazine phosphate] | 0.56 | 
CN1C(=O)CN=C(C2=CCCCC2)c2cc(Cl)ccc21 [tetrazepam] |  | PPB (fb) (plasma): 0.7
COCCOc1c(OC)cc(Cc2cnc(N)nc2N)cc1OC [tetroxoprim] | 0.15 | 

SMILES | PPB (fb) [1] | further results
Cn1cc[nH]c1=S [thiamazole] |  | PPB (fb) [2]: 0
CSc1ccc2c(c1)N(CCC1CCCCN1C)c1ccccc1S2 (centres unmarked) [thioridazine] | 0.98 | 
NC(Cc1cc(I)c(Oc2cc(I)c(O)c(I)c2)c(I)c1)C(=O)O (centres unmarked) [thyroxine] |  | PPB (fb) [2]: 0.99
CCN(CC)CCNC(=O)c1cc(S(C)(=O)=O)ccc1OC [tiapride] | 0 | 
CC(C(=O)O)c1ccc(C(=O)c2ccccc2)s1 (centres unmarked) [tiaprofenic acid] | 0.98 | 
C#C[C@]1(O)CC[C@H]2[C@@H]3[C@H](C)CC4=C(CCC(=O)C4)[C@H]3CC[C@@]21C [tibolone] | 0.96 | 
Clc1ccccc1CN1CCc2sccc2C1 [ticlopidine] | 0.96 | 
O=C(O)COc1ccc(C(=O)c2cccs2)c(Cl)c1Cl [tienilic acid] | 0.99 | 
O=P(O)(O)C(Sc1ccc(Cl)cc1)P(=O)(O)O [tiludronic acid] | 0.9 | 
Cc1ccc(S(=O)(=O)NC(=O)NN2CCCCCC2)cc1 [tolazamide] |  | PPB (fb) [3]: 0.97
c1ccc(CC2=NCCN2)cc1 [tolazoline] |  | PPB (fb) [3]: 0.23
Cc1c(Cl)cccc1Nc1ccccc1C(=O)O [tolfenamic acid] |  | PPB (fb) [3]: 0.99
Cc1ccc(C(=O)c2ccc(CC(=O)O)n2C)cc1 [tolmetin] |  | PPB (fb) [3]: 0.99
COc1ccc2c(C(=S)N(C)CC(=O)O)cccc2c1C(F)(F)F [tolrestat] |  | PPB (fb) [3]: 0.99
CC1(C)O[C@@H]2[C@@H](CO[C@@]3(COS(N)(=O)=O)OC(C)(C)O[C@@H]23)O1 [topiramate] |  | PPB (fb) [3]: 0.15
CN(C)CCOc1ccc(/C(=C(/CCCl)c2ccccc2)c2ccccc2)cc1 [toremifene] |  | PPB (fb) [3]: 0.99
CCOC(=O)[C@H](CCc1ccccc1)N[C@@H](C)C(=O)N1[C@H](C(=O)O)C[C@H]2CCCC[C@@H]21 [trandolapril] |  | PPB (fb) [2]: 0.84
C[C@H](N[C@@H](CCc1ccccc1)C(=O)O)C(=O)N1[C@H](C(=O)O)C[C@H]2CCCC[C@@H]21 [trandolaprilat] |  | PPB (fb) [3]: 0.94
NC[C@H]1CC[C@H](C(=O)O)CC1 [tranexamic acid] |  | PPB (fb) [3]: 0.03
O=c1n(CCCN2CCN(c3cccc(Cl)c3)CC2)nc2ccccn12 [trazodone] |  | PPB (fb) [3]: 0.92
